Measured values taken from patent US7109193B2, “Tricyclic diazepines tocolytic oxytocin receptor antagonists” (Wyeth, priority 2001, dated 2006).

target: T1, human vasopressin V2 receptor subtype (Homo sapiens, UniProt P30518); test: Vasopressin binding in Chinese Hamster Ovary cell membranes expressing human vasopressin V2 subtype receptors; details: 100 nM, CHO cell membranes, [3H]arginine vasopressin, values without parentheses
T1 construct: host or cells: CHO cells (pZeoSV vector)
Method: Vasopressin Binding in Chinese Hamster Ovary Cell Membranes Expressing Human Vasopressin V2 Subtype Receptors
Chinese Hamster Ovary (CHO) cells stably transfected with the human V2 subtype receptors were obtained from M. Thibonnier, Case Western Reserve University School of Medicine, Cleveland, Ohio.
A. Passaging and Amplification of Cells:
The trypsin is removed by aspiration and the cells dislodged by tapping. Cell Culture medium (e.g. 30 mL for 1:30 split) is immediately added and mixed well to inactivate trypsin. 1 mL of detached cells is added to new culture flasks containing fresh Cell Culture medium (e.g. into 25 mL per T-150 flask), and mixed gently. The cells are incubated at 37° C. in 5% CO2. The medium is changed at 3 to 4 day interval (or as appropriate). […] All steps are done under sterile conditions. B. Membrane Preparation: The cells are washed twice gently with Hank's Balanced Salt solution (e.g. use 10 mL per T-150 flask). […] The contents are transferred to centrifuge tubes (50 mL) kept in ice bath. All subsequent steps are done at 4° C. The tubes are centrifuged at 300×g for 15 min (1380 rpm on SORVAL, Model RT6000D, using the rotor for 50 mL tubes). The supernatant is discarded and the cells suspended in homogenizing buffer (10 mM Tris-HCl containing 0.25 M sucrose and 1 mM EDTA, pH 7.4) ensuring that the volume of the buffer is about ten times the volume of the cell pellet. The cells are pooled into a centrifuge tube (50 mL) and homogenized with a Polytron at setting 6 for 10 sec. The homogenate is transferred into a Potter-Elvjehm homogenizer and homogenized with 3 strokes. The homogenate is centrifuged at 1500×g for 60 min at 4° C. (3100 rpm using SORVAL, model RT6000D, using the rotor for 50 mL tubes). The pellet is discarded. The supernatant is centrifuged at 100,000×g for 60 min. at 4° C. (Beckman L8-80M ultracentrifuge; spin at 37,500 rpm with rotor type 70 Ti for 50 mL tubes; 38,000 rpm with type 80Ti for 15 mL tubes; or 35,800 rpm with rotor type 45Ti). The supernantant is discarded and the pellet suspended in 3 to 4 mL of Tris buffer (50 mM TRIS-HCl, pH 7.4). The protein content is estimated by the Bradford or Lowry method. The volume of the membrane suspension is adjusted with the membrane buffer (50 mM Tris-HCl containing 0.1% BSA and 0.1 mM PMSF) to give 3.0 mg/mL (or as appropriate) of protein. The membranes are aliquoted and stored at −70° C. C. Radioligand Binding Assay: In wells of a 96-well format microtiter plate, is added 90, 110 or 130 μL (to make up a final volume of 200 μL) of assay buffer containing 50 mM of Tris-HCl (pH 7.4), […], 1 mg % aprotinin, 1 mg % leupeptin, 2 mg % 1,10-phenanthroline, 10 mg % trypsin inhibitor, and 0.1 mM PMSF. The inhibitors are added on the day of the experiment. The components are mixed at room temperature, and then kept in ice bath following adjustment of the pH to 7.4. […] For vasopressin and other peptide ligands 20 μL of 50% DMSO is added and the assay buffer volume is adjusted accordingly. To each well is added 50 μL of frozen membrane suspension thawed immediately prior to use and diluted in assay buffer to the required concentration (equivalent to 25 to 50 μg of protein/well as needed). 20 μL of 8 nM [^3H]arginine vasopressin ligand in the assay buffer, prepared just before use is added and incubated at room temperature for 60 min. shaking the plate on a mechanical shaker for the first 15 min. The incubation is stopped by rapid filtration of the plate contents followed by wash with ice-cold buffer (50 mM Tris-HCl, pH 7.4) using a cell harvester (Tomtek and Printed filtermat-B filter paper). The filter paper is thoroughly dried (7–12 min. in a microwave oven) and impregnated with MeltiLex B/H melt-on scintillation wax sheets and the radioactivity counted in a betaplate scintillation counter.

T1 sequence (P30518 whole entry): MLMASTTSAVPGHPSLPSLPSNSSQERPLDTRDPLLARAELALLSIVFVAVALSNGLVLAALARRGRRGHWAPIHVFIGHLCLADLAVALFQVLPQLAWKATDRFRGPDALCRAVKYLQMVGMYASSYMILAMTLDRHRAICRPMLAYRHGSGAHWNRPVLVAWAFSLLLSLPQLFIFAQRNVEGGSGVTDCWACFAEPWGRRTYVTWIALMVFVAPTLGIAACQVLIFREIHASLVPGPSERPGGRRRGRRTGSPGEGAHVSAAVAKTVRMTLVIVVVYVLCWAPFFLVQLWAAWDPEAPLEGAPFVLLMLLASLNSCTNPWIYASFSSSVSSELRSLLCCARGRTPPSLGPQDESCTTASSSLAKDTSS

SMILES	V2 % inhibition @ 100 nM [%]	inhibition at 0.1 µM [%]
CN(C)[C@@H]1CCN(C(=O)c2ccc3n2Cc2ccccc2N(C(=O)c2ccc(-c4cccc5ccccc45)cc2Cl)C3)C1 [Example 277, {10-[2-Chloro-4-(1-naphthyl)benzoyl]-10,11-dihydro-5H-pyrrolo[2,1-c][1,4]benzodiazepin-3-yl}[(3R)-3-(dimethylamino)pyrrolidinyl]methanone]	19	
COc1ccccc1-c1ccc(C(=O)N2Cc3ccc(C(=O)N4CCC(N5CCCCC5)CC4)n3Cc3ccccc32)cc1C [Example 112, {10-[(2-Methyl-2′-methoxy[1,1′-biphenyl]-4-yl)carbonyl]-10,11-dihydro-5H-pyrrolo[2,1-c][1,4]benzodiazepin-3-yl}[4-(1-piperidinyl)-1-piperidinyl]methanone]		32
COc1cccc(-c2ccc(C(=O)N3Cc4ccc(C(=O)N5CCC(N6CCCCC6)CC5)n4Cc4ccccc43)cc2C)c1 [Example 114, {10-[(2-Methyl-3′-methoxy[1,1′-biphenyl]-4-yl)carbonyl]-10,11-dihydro-5H-pyrrolo[2,1-c][1,4]benzodiazepin-3-yl}[4-(1-piperidinyl)-1-piperidinyl]methanone]		22
COc1cccc(-c2ccc(C(=O)N3Cc4ccc(C(=O)N5CCC[C@H]5CN5CCCC5)n4Cc4ccccc43)cc2OC)c1 [Example 270, {10-[(2,3′-Dimethoxy[1,1′-biphenyl]-4-yl)carbonyl]-10,11-dihydro-5H-pyrrolo[2,1-c][1,4]benzodiazepin-3-yl}[(2S)-2-(1-pyrrolidinylmethyl)pyrrolidinyl]methanone]	25	
COc1cccc(-c2cc(OC)c(C(=O)N3Cc4ccc(C(=O)N5CCN(CCN6CCOCC6)CC5)n4Cc4ccccc43)cc2Cl)c1 [Example 212, {10-[(6-Chloro-3,3′-dimethoxy[1,1′-biphenyl]-4-yl)carbonyl]-10,11-dihydro-5H-pyrrolo[2,1-c][1,4]benzodiazepin-3-yl}{4-[2-(4-morpholinyl)ethyl]-1-piperazinyi}methanone]	43	
COc1cccc(-c2ccc(C(=O)N3Cc4ccc(C(=O)N(C)CCCN(C)C)n4Cc4ccccc43)cc2OC)c1 [Example 108, 10-[(2,3′-Dimethoxy[1,1′-biphenyl]-4-yl)carbonyl]-N-[3-(dimethylamino)propyl]-N-methyl-10,11-dihydro-5H-pyrrolo[2,1-c][1,4]benzodiazepine-3-carboxamide]		8
COc1cc(-c2ccccc2C)c(Cl)cc1C(=O)N1Cc2ccc(C(=O)N3CCC[C@H]3CN3CCCC3)n2Cc2ccccc21 [Example 267, {10-[(6-Chloro-3-methoxy-2′-methyl[1,1′-biphenyl]-4-yl)carbonyl]-10,11-dihydro-5H-pyrrolo[2,1-c][1,4]benzodiazepin-3-yl}[(2S)-2-(1-pyrrolidinylmethyl)pyrrolidinyl]methanone]	24	
COc1cc(C(=O)N2Cc3ccc(C(=O)N(C)CCCN(C)C)n3Cc3ccccc32)ccc1-n1c(C)ccc1C [Example 310, N-[3-(Dimethylamino)propyl]-10-[4-(2,5-dimethyl-i H-pyrrol-1-yl)-3-methoxybenzoyl]-N-methyl-10,11-dihydro-5H-pyrrolo[2,1-c][1,4]benzodiazepine-3-carboxamide]	12	
COc1cc2c(cc1OC)N(C(=O)c1ccc(-c3ccccc3C(F)(F)F)c(C)c1)Cc1ccc(C(=O)N(C)CCCN(C)C)n1C2.Cl [Example 13, N-Methyl-[N-(3-dimethylamino)propyl]-7,8-dimethoxy-10-{[2-methyl-2′-(trifluoromethyl)[1,1′-biphenyl]-4-yl]carbonyl}-10,11-dihydro-5H-pyrrolo[2,1-c][1,4]benzodiazepine-3-carboxamide hydrochloride salt]	−4	
COc1ccccc1-c1ccc(C(=O)N2Cc3ccc(C(=O)N4CC[C@@H](N(C)C)C4)n3Cc3ccccc32)cc1OC [Example 282, {10-[(2,2′-Dimethoxy[1,1′-biphenyl]-4-yl)carbonyl]-10,11-dihydro-5H-pyrrolo[2,1-c][1,4]benzodiazepin-3-yl][(3R)-3-(dimethylamino)pyrrolidinyl]methanone]	−17	
COc1cccc(-c2ccc(C(=O)N3Cc4ccc(C(=O)NCCCn5ccnc5)n4Cc4ccccc43)cc2C)c1 [Example 125, N-[3-(1H-Imidazol-1-yl)propyl]-10-[(3′-methoxy-2-methyl[1,1′-biphenyl]-4-yl)carbonyl]-10,11-dihydro-5H-pyrrolo[2,1-c][1,4]benzodiazepine-3-carboxamide]		8
COc1ccccc1-c1ccc(C(=O)N2Cc3ccc(C(=O)N4CC[C@@H](N(C)C)C4)n3Cc3ccccc32)cc1 [Example 279, [(3R)-3-(Dimethylamino)pyrrolidinyl]{10-[(2′-methoxy[1,1′-biphenyl]-4-yl)carbonyl]-10,11-dihydro-5H-pyrrolo[2,1-c][1,4]benzodiazepin-3-yl}methanone]	17	
COc1ccccc1-c1ccc(C(=O)N2Cc3ccc(C(=O)N(C)CCCN(C)C)n3Cc3ccccc32)cc1OC [Example 107, 10-[(2,2′-Dimethoxy[1,1′-biphenyl]-4-yl)carbonyl]-N-[3-(dimethylamino)propyl]-N-methyl-10,11-dihydro-5H-pyrrolo[2,1-c][1,4]benzodiazepine-3-carboxamide]		19
Cc1ccccc1-c1ccc(C(=O)N2Cc3ccc(C(=O)N4CC[C@@H](N(C)C)C4)n3Cc3ccccc32)cc1C [Example 274, [(3R)-3-(Dimethylamino)pyrrolidinyl]{10-[(2,2′-dimethyl[1,1′-biphenyl]-4-yl)carbonyl]-10,11-dihydro-5H-pyrrolo[2,1-c][1,4]benzodiazepin-3-yl}methanone]	32	
COc1ccccc1-c1ccc(C(=O)N2Cc3ccc(C(=O)N4CCC[C@H]4CN4CCCC4)n3Cc3ccccc32)cc1OC [Example 269, {10-[(2,2′-Dimethoxy[1,1′-biphenyl]-4-yl)carbonyl]-10,11-dihydro-5H-pyrrolo[2,1-c][1,4]benzodiazepin-3-yl}[(2S)-2-(1-pyrrolidinylmethyl)pyrrolidinyl]methanone]	−19	
COc1cc(C(=O)N2Cc3ccc(C(=O)N4CCC(N5CCCCC5)CC4)n3Cc3ccccc32)ccc1-c1ccccc1C [Example 116, {10-[(2-Methoxy-2′-methyl[1,1′-biphenyl]-4-yl)carbonyl]-10,11-dihydro-5H-pyrrolo[2,1-c][1,4]benzodiazepin-3-yl}[4-(1-piperidinyl)-1-piperidinyl]methanone]		22
Cc1cc(C(=O)N2Cc3ccc(C(=O)N4CCC(N5CCCCC5)CC4)n3Cc3ccccc32)ccc1-c1ccccc1C(F)(F)F [Example 122, {10-[(2-Methyl-2′-(trifluoromethyl) -[1,1′-biphenyl]-4-yl)carbonyl]-10,11-dihydro-5H -pyrrolo[2,1-c][1,4]benzodiazepin-3-yl}[4-(1-piperidinyl)-1-piperidinyl]methanone]		8
COc1cccc(-c2ccc(C(=O)N3Cc4ccc(C(=O)N5CCC(N6CCCC6)CC5)n4Cc4ccccc43)cc2OC)c1 [Example 146, {10-[(2,3′-Dimethoxy[1,1′-biphenyl]-4-yl)carbonyl]-10,11-dihydro-5H-pyrrolo[2,1-c][1,4]benzodiazepin-3-yl}[4-(1-pyrrolidinyl)-1-piperidinyl]methanone]		12
